pIC50: −log10 of the molar value.

The nature of data set [1]: Metabolic Stability Study, liver microsome incubation (human). The class given is in vitro ADME. The following applies: human liver microsomes 0.5 mg/mL, 1 μM compound, NADPH; for half-life at 1 μM: NA^# = very stable, beyond the detection limits, read-out: T1/2 (min) Human; for microsomal CLint at 1 μM: read-out: CLint (μL × min^−1 × mg^−1) Human. Put shortly: (§1)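 Test compounds (1 μM) incubated at 37° C with 0.5 mg/mL liver microsomes plus NADPH regenerating system; samples quenched at 0, 30 and 60 min. Parent loss measured by LC-MS/MS, giving CLint and T1/2, with CLint normalised to microsomal protein concentration.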
Background: Microsomes from liver hold many membrane-bound enzymes, among them those of drug oxidation.

Data set [2] is described as follows: Metabolic Stability Study, liver microsome incubation (mouse). In kind it is in vitro ADME. The note with it: mouse liver microsomes 0.5 mg/mL, 1 μM compound, NADPH; for half-life at 1 μM: NA^# = very stable, beyond the detection limits, read-out: T1/2 (min) mouse; for microsomal CLint at 1 μM: read-out: CLint (μL × min^−1 × mg^−1) mouse. Put shortly: as §1
The next data set in a line: Mouse PK Study. The class given is in vivo. The following applies: plasma, male CD-1 mouse. As for the experimental part: Biological Example: Mouse PK Study
The pharmacokinetics of compounds were evaluated in male CD-1 mouse via Intravenous (dose of 1 mg/kg) and Oral Administration (dose of 10 mg/kg). For intravenous administration study, test compounds were dissolved in DMSO/EtOH/Cremophor EL/D5W (2.5/10/20/67.5, by volume) and injected with a 1 mg/kg dose via tail vein. For oral administration study, test compounds were dissolved in PEG400/Phosal 50 PG/EtOH (30/60/10, by volume) and administrated to mice at 10 mg/kg by gavage. Blood was collected into EDTA-K2 anticoagulant tube at 5 (IV only). 15, and 30 min and 1, 2, 4, 8 and 24 h after administration. Approximately 30 μL blood was collected at each time point. And then the blood was centrifuged at 3000 g for 5 min at 4° C. using a centrifuge to obtain the plasma. The plasma sample was transferred into a tube and stored in a freezer at approximately −20° C. until the determination of concentration by LC-MS/MS. Pharmacokinetic parameter were estimated by using WinNonlin software (version 8.1, Pharsight Corporation, CA, USA) with non-compartmental method. The following pharmacokinetic parameters were calculated, whenever possible from the plasma concentration-time data: CL, Vd, T1/2, AUClast, AUCinf for IV administration and Tmax, Cmax, AUClast, AUCinf, T1/2 for PO administration. All animals are free fed before experiment. For comparison purpose, the PK results of certain compounds in previous disclosure were obtained using the same methods.

The subject of data set [3] is RS4;11 (BCL-2 dependent acute lymphoblastic leukemia cell line). The experiment in a line: RS4;11 Cell Proliferation Assay. In kind it is cell-based. The following applies: Homo sapiens, RS4;11 cells, read-out: Cellular proliferation assay (IC50, nM) RS4. Put shortly: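 RS4;11 cells, 50,000 per well in RPMI-1640 with 10% FBS, treated 48 h at 37 °C with a 10-point dilution series topping at 1 μM. Viability read by CellTiter-Glo ATP luminescence; mean IC50 reported.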

Data set [4] addresses recombinant human Bcl-2 D103Y protein (Homo sapiens (Human), UniProt P10415, D103Y). The experiment in a line: Bcl-2-D103Y Biochemical Assay (TR-FRET). The class given is binding. The following applies: for pIC50: TR-FRET, FITC labeled Bak peptide; for Ratio of Bcl-2 D103Y/Bcl-2 WT: ratio of IC50. Put shortly:
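Recombinant human Bcl-2 D103Y binding to its ligand measured by TR-FRET (ex 337 nm, em 490/520 nm) with increasing compound concentrations. Percent inhibition from the 490/520 nm ratio; IC50 from four-parameter logistic fit.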

Sequence of recombinant human Bcl-2 D103Y protein (P10415 whole entry D103Y): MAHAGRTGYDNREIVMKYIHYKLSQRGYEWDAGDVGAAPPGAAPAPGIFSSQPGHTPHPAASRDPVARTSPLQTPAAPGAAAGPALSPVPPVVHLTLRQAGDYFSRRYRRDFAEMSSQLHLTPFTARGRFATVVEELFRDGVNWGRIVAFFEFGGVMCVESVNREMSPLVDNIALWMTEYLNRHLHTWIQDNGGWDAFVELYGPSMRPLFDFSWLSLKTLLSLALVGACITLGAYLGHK

Broadly, the AUC(0-t) is the area under the concentration-time curve up to a stated or last time point. High values mean high exposure, low ones low exposure. As a reminder, the Vd is a proportionality between amount in the body and measured concentration, not a real space. The low end stands for little distribution into tissue, the high end for wide distribution into tissue. In general, clearance refers to a measure of how efficiently the substance is removed, as volume per time. Read a low clearance as inefficient removal. Broadly, the Cmax is the peak of the concentration-time curve. What is called pIC50 is the IC50 on a negative log10 scale, so that one unit is a factor of ten. Regarding `COc1ccc(CN2CCN(C3CC4(CCN(c5ccc(C(=O)NS(=O)(=O)c6ccc(NCC7(F)CCOCC7)c([N+](=O)[O-])c6)c(Oc6cnc7[nH]ccc7c6)c5)CC4)C3)[C@H](c3ccccc3C(C)C)C2)cc1` (single isomer, unassigned) [Example 32, (R or S)-2-((1H-pyrrolo[2,3-b]pyridin-5-yl)oxy)-N-((4-(((4-fluorotetrahydro-2H-pyran-4-yl)methyl)amino)-3-nitrophenyl)sulfonyl)-4-(2-(2-(2-isopropylphenyl)-4-(4-methoxybenzyl)piperazin-1-yl)-7-azaspiro[3.5]nonan-7-yl)benzamide], in data set [1], the half-life at 1 μM is 533 min and the microsomal CLint at 1 μM turned out to be 2.6 µL/min/mg. Besides, in data set [2], the half-life at 1 μM is 202 min and the microsomal CLint at 1 μM worked out at 6.8 µL/min/mg. In the data set “Mouse PK Study” (Iv dosing (1 mg/kg)), this molecule registered an exposure AUC(0-t) of 10500 ng·h/mL, a Vd of 0.48 L/kg and a clearance of 1.5 mL/min/kg. Also, in “Mouse PK Study” (Po dosing (10 mg/kg)), the AUC(0-t) was found to be 21200 ng·h/mL and the highest level (Cmax) was 1440 ng/mL. The IC50 in data set [3] is 0.18 nM. Further, in data set [4], the negative-log IC50 (pIC50) was 9.96 and the “Ratio of Bcl-2 D103Y/Bcl-2 WT” value amounted to 1.1.

Turning to `COc1ccc(CN2CCN(C3CC4(CCN(c5ccc(C(=O)NS(=O)(=O)c6ccc(NC[C@H]7CC[C@](C)(O)CC7)c([N+](=O)[O-])c6)c(Oc6cnc7[nH]ccc7c6)c5)CC4)C3)[C@H](c3ccccc3C(C)C)C2)cc1` [Example 19a, 2-((1H-pyrrolo[2,3-b]pyridin-5-yl)oxy)-N-((4-((((1r,4r)-4-hydroxy-4-methylcyclohexyl)methyl)amino)-3-nitrophenyl)sulfonyl)-4-(2-((R)-2-(2-isopropylphenyl)-4-(4-methoxybenzyl)piperazin-1-yl)-7-azaspiro[3.5]nonan-7-yl)benzamide], in data set [1], the microsomal CLint at 1 μM is below 1 µL/min/mg. Further, in data set [2], the half-life at 1 μM stood at 346 min and the microsomal CLint at 1 μM was determined as 4 µL/min/mg. In addition, in the data set “Mouse PK Study” (Iv dosing (1 mg/kg)), the AUC(0-t) is 12300 ng·h/mL, the volume of distribution (Vd) came out at 0.48 L/kg and the clearance came to 1.4 mL/min/kg. Also, in the data set “Mouse PK Study” (Po dosing (10 mg/kg)), the AUC(0-t) is 20000 ng·h/mL and the peak concentration (Cmax) is 1590 ng/mL. In addition, the IC50 in data set [3] is 0.15 nM. For the same molecule, in data set [4], the negative logarithm of the IC50 (pIC50) is 9.82 and the “Ratio of Bcl-2 D103Y/Bcl-2 WT” value was 2.6. Also, the “ratio of Bcl-2 D103Y/Bcl-2 wt, compared with F91b in WO2019210828” value in data set [4] (comparison in words) was “significantly lower”.

With `COc1cc(CN2CCN(C3CC4(C3)CN(c3ccc(C(=O)NS(=O)(=O)c5ccc(NC[C@H]6CC[C@](C)(O)CC6)c([N+](=O)[O-])c5)c(Oc5cnc6[nH]cc(F)c6c5)c3)C4)[C@H](c3ccccc3C(C)C)C2)ccc1C1CC1` [Example 232, 4-(6-((R)-4-(4-cyclopropyl-3-methoxybenzyl)-2-(2-isopropylphenyl)piperazin-1-yl)-2-azaspiro[3.3]heptan-2-yl)-2-((3-fluoro-1H-pyrrolo[2,3-b]pyridin-5-yl)oxy)-N-((4-((((1r,4r)-4-hydroxy-4-methylcyclohexyl)methyl)amino)-3-nitrophenyl)sulfonyl)benzamide], in data set [1], the half-life at 1 μM is 822 min and the microsomal CLint at 1 μM was 1.7 µL/min/mg. In addition, in data set [2], the half-life at 1 μM was found to be 206 min and the microsomal CLint at 1 μM is 6.7 µL/min/mg. In the data set “Mouse PK Study” (Iv dosing (1 mg/kg)), this molecule came in with an AUC(0-t) of 14400 ng·h/mL, a distribution volume (Vd) of 1.2 L/kg and a clearance of 1.2 mL/min/kg. Moreover, in “Mouse PK Study” (Po dosing (10 mg/kg)), the AUC(0-t) came to 18300 ng·h/mL and the peak level (Cmax) was 1090 ng/mL. The IC50 in data set [3] stood at 0.13 nM. In addition, in data set [4], the pIC50 was 9.02 and the “Ratio of Bcl-2 D103Y/Bcl-2 WT” value was determined as 1.6.

On to `COc1cc(CN2CCN(C3CC4(C3)CN(c3ccc(C(=O)NS(=O)(=O)c5ccc(NC[C@H]6CC[C@](C)(O)CC6)c([N+](=O)[O-])c5)c(Oc5cnc6[nH]ccc6c5)c3)C4)[C@H](c3ccccc3C(C)C)C2)ccc1C1CC1` [Example 233, 2-((1H-pyrrolo[2,3-b]pyridin-5-yl)oxy)-4-(6-((R)-4-(4-cyclopropyl-3-methoxybenzyl)-2-(2-isopropylphenyl)piperazin-1-yl)-2-azaspiro[3.3]heptan-2-yl)-N-((4-((((1r,4r)-4-hydroxy-4-methylcyclohexyl)methyl)amino)-3-nitrophenyl)sulfonyl)benzamide], for which, in data set [1], the half-life at 1 μM was determined as 534 min and the microsomal CLint at 1 μM is 2.6 µL/min/mg. Further, in data set [2], the half-life at 1 μM was found to be 253 min and the microsomal CLint at 1 μM is 5.5 µL/min/mg. In the data set “Mouse PK Study” (Iv dosing (1 mg/kg)), this molecule had an AUC(0-t) of 17200 ng·h/mL, a Vd of 0.8 L/kg and a clearance of 1 mL/min/kg. In the data set “Mouse PK Study” (Po dosing (10 mg/kg)), the AUC(0-t) came to 17400 ng·h/mL and the highest concentration (Cmax) stood at 1100 ng/mL. In data set [3], the IC50 amounted to 0.13 nM. For the same molecule, in data set [4], the negative-log IC50 (pIC50) was 9.08 and the “Ratio of Bcl-2 D103Y/Bcl-2 WT” value is recorded as 1.9.

On to `COc1cc(CN2CCN(C3CC4(C3)CN(c3ccc(C(=O)NS(=O)(=O)c5ccc(NC[C@H]6CC[C@](C)(O)CC6)c([N+](=O)[O-])c5)c(Oc5cnc6[nH]cc(F)c6c5)c3)C4)[C@H](c3ccccc3C(C)C)C2)cc2cc(C)oc12` [Example 338, 2-((3-fluoro-1H-pyrrolo[2,3-b]pyridin-5-yl)oxy)-N-((4-((((1r,4r)-4-hydroxy-4-methylcyclohexyl)methyl)amino)-3-nitrophenyl)sulfonyl)-4-(6-((R)-2-(2-isopropylphenyl)-4-((7-methoxy-2-methylbenzofuran-5-yl)methyl)piperazin-1-yl)-2-azaspiro[3.3]heptan-2-yl)benzamide], for which, in data set [1], the half-life at 1 μM was determined as 659 min and the microsomal CLint at 1 μM was determined as 2.1 µL/min/mg. Moreover, in data set [2], the half-life at 1 μM came to 538 min and the microsomal CLint at 1 μM was determined as 2.6 µL/min/mg. In the data set “Mouse PK Study” (Iv dosing (1 mg/kg)), this molecule came in with an AUC(0-t) of 42900 ng·h/mL, a distribution volume (Vd) of 0.37 L/kg and a clearance of 0.4 mL/min/kg. For the same molecule, in “Mouse PK Study” (Po dosing (10 mg/kg)), the area under the curve AUC(0-t) stood at 11600 ng·h/mL and the Cmax is 699 ng/mL. Besides, in data set [3], the IC50 is 0.11 nM. For the same molecule, in data set [4], the negative logarithm of the IC50 (pIC50) was 9.00 and the “Ratio of Bcl-2 D103Y/Bcl-2 WT” value amounted to 1.7.

For the origin of these results see patent US20240376097A1, “BCL-2 Inhibitor” (BeiGene Ltd., priority 2020, published 2024).
